Where “and” joins values, the source holds several entries; their conditions need not be identical. Equal values may be shown once. Toxic doses and inconclusive results are not listed.
Tested on: L1210 leukemia ip in BDF1 mice, survival T/C
Experiment: NCI In Vivo Anticancer Drug Screen. Data for tumor model L1210 Leukemia (intraperitoneal) in B6D2F1 (BDF1) mice
Conditions: endpoint: mean survival time, higher = longer survival
Procedure, shortened: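 Survival endpoint. Drug-treated group vs vehicle group, expressed as T divided by C. Tumor passaged by transplantation.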

[1] = dose: 100.0 mg/kg/injection, schedule: Q01DX009 (ip), vehicle: Klucel (hydroxypropylcellulose) (HPC)
[2] = dose: 200.0 mg/kg/injection, schedule: Q01DX009 (ip), vehicle: Klucel (hydroxypropylcellulose) (HPC)
[3] = dose: 400.0 mg/kg/injection, schedule: Q01DX009 (ip), vehicle: Klucel (hydroxypropylcellulose) (HPC)
[4] = dose: 100.0 mg/kg/injection, schedule: Q01DX001 (ip), vehicle: carboxymethylcellulose (CMC)
[5] = dose: 200.0 mg/kg/injection, schedule: Q01DX001 (ip), vehicle: carboxymethylcellulose (CMC)
[6] = dose: 400.0 mg/kg/injection, schedule: Q01DX001 (ip), vehicle: carboxymethylcellulose (CMC)
[7] = dose: 100.0 mg/kg/injection, schedule: Q01DX009 (ip), vehicle: saline with Tween-80
[8] = dose: 200.0 mg/kg/injection, schedule: Q01DX009 (ip), vehicle: saline with Tween-80
[9] = dose: 400.0 mg/kg/injection, schedule: Q01DX009 (ip), vehicle: saline with Tween-80
[10] = dose: 100.0 mg/kg/injection, schedule: Q01DX001 (ip), vehicle: other
[11] = dose: 200.0 mg/kg/injection, schedule: Q01DX001 (ip), vehicle: other
[12] = dose: 400.0 mg/kg/injection, schedule: Q01DX001 (ip), vehicle: other
[13] = dose: 100.0 mg/kg/injection, schedule: Q01DX001 (ip), vehicle: saline
[14] = dose: 200.0 mg/kg/injection, schedule: Q01DX001 (ip), vehicle: saline
[15] = dose: 400.0 mg/kg/injection, schedule: Q01DX001 (ip), vehicle: saline

SMILES: NC(N)=N/N=C\CCC/C=N/N=C(N)N
- T/C (dose: 15.0 mg/kg/injection, schedule: Q01DX Z (ip), vehicle: saline): 98 % of control
- T/C (dose: 30.0 mg/kg/injection, schedule: Q01DX Z (ip), vehicle: saline): 97 % of control
- T/C (dose: 60.0 mg/kg/injection, schedule: Q01DX Z (ip), vehicle: saline): 105 % of control
- T/C (dose: 60.0 mg/kg/injection, schedule: Q01DX Z (oral), vehicle: other): 95 % of control
- T/C (dose: 120.0 mg/kg/injection, schedule: Q01DX Z (ip), vehicle: saline): 94 % of control
- T/C (dose: 120.0 mg/kg/injection, schedule: Q01DX Z (oral), vehicle: other): 100 % of control
- T/C (dose: 240.0 mg/kg/injection, schedule: Q01DX Z (oral), vehicle: other): 97 % of control
- T/C (dose: 480.0 mg/kg/injection, schedule: Q01DX Z (oral), vehicle: other): 102 % of control

SMILES: Cc1c(Cl)cccc1NC(=O)Sc1ccc(C(C)(C)C)cc1
- T/C [1]: 100 % of control
- T/C [2]: 90 % of control
- T/C [3]: 98 % of control

SMILES: COC(=O)/C=C/C=C(c1ccccc1)c1ccccc1
- T/C [4]: 93 % of control
- T/C [5]: 102 % of control
- T/C [6]: 102 % of control

SMILES: CC(C)(C)C(=O)Nc1ccc(Cl)cc1C(=O)c1ccccc1
- T/C [7]: 92 % of control and 110 % of control
- T/C (dose: 100.0 mg/kg/injection, schedule: Q04DX002 (ip), vehicle: saline with Tween-80): 93 % of control and 98 % of control
- T/C [8]: 96 % of control and 100 % of control
- T/C (dose: 200.0 mg/kg/injection, schedule: Q04DX002 (ip), vehicle: saline with Tween-80): 93 % of control and 107 % of control
- T/C [9]: 92 % of control and 95 % of control
- T/C (dose: 400.0 mg/kg/injection, schedule: Q04DX002 (ip), vehicle: saline with Tween-80): 107 % of control and 87 % of control

SMILES: CCOC(=O)COc1c(C(C)CC)cc([N+](=O)[O-])cc1[N+](=O)[O-] (stereo not drawn)
- T/C (dose: 25.0 mg/kg/injection, schedule: Q01DX009 (ip), vehicle: gum acacia): 93 % of control
- T/C (dose: 25.0 mg/kg/injection, schedule: Q04DX002 (ip), vehicle: gum acacia): 104 % of control
- T/C (dose: 50.0 mg/kg/injection, schedule: Q01DX009 (ip), vehicle: gum acacia): 93 % of control
- T/C (dose: 50.0 mg/kg/injection, schedule: Q04DX002 (ip), vehicle: gum acacia): 100 % of control
- T/C (dose: 100.0 mg/kg/injection, schedule: Q01DX009 (ip), vehicle: gum acacia): 90 % of control
- T/C (dose: 100.0 mg/kg/injection, schedule: Q04DX002 (ip), vehicle: gum acacia): 100 % of control and 92 % of control

SMILES: CC(/C=N/NC(=O)NO)=N\NC(=O)NO
- T/C [10]: 98 % of control
- T/C [7]: 98 % of control
- T/C (dose: 100.0 mg/kg/injection, schedule: Q04DX003 (ip), vehicle: other): 112 % of control
- T/C [11]: 98 % of control
- T/C [8]: 97 % of control
- T/C (dose: 200.0 mg/kg/injection, schedule: Q04DX003 (ip), vehicle: other): 102 % of control
- T/C [12]: 104 % of control
- T/C [9]: 104 % of control
- T/C (dose: 400.0 mg/kg/injection, schedule: Q04DX003 (ip), vehicle: other): 98 % of control

SMILES: NC(=S)c1cccc(S(N)(=O)=O)c1
- T/C (dose: 100.0 mg/kg/injection, schedule: Q01DX001 (ip), vehicle: Klucel (hydroxypropylcellulose) (HPC)): 100 % of control
- T/C (dose: 200.0 mg/kg/injection, schedule: Q01DX001 (ip), vehicle: Klucel (hydroxypropylcellulose) (HPC)): 103 % of control
- T/C (dose: 400.0 mg/kg/injection, schedule: Q01DX001 (ip), vehicle: Klucel (hydroxypropylcellulose) (HPC)): 103 % of control

SMILES: CC1C(Cl)(Cl)C1(C)/C=C/C1C(C)(C)C1(Cl)Cl (stereo not drawn)
- T/C [10]: 260 % of control
- T/C [13]: 106 % of control
- T/C (dose: 178.0 mg/kg/injection, schedule: Q01DX001 (ip), vehicle: saline): 101 % of control
- T/C [11]: 117 % of control
- T/C [14]: 108 % of control
- T/C (dose: 267.0 mg/kg/injection, schedule: Q01DX001 (ip), vehicle: saline): 97 % of control
- T/C [12]: 202 % of control
- T/C [15]: 95 % of control and 97 % of control
- T/C (dose: 600.0 mg/kg/injection, schedule: Q01DX001 (ip), vehicle: saline): 88 % of control

SMILES: O=NN(CCF)C(=O)NC1CCCCCCCCCCC1
- T/C (dose: 40.0 mg/kg/injection, schedule: Q01DX001 (ip), vehicle: other): 108 % of control
- T/C (dose: 60.0 mg/kg/injection, schedule: Q01DX001 (ip), vehicle: other): 112 % of control

SMILES: CN(C)c1ccc(O)c2c1CC1CC3C(N(C)C)C(=O)C(C(N)=O)=C(O)C3(O)C(=O)C1=C2O (stereo not drawn)
- T/C (dose: 100.0 mg/kg/injection, schedule: Q04DX003 (ip), vehicle: saline with Tween-80): 100 % of control
- T/C (dose: 200.0 mg/kg/injection, schedule: Q04DX003 (ip), vehicle: saline with Tween-80): 108 % of control

SMILES: Cc1ccc(N)cc1Cl
- T/C (dose: 100.0 mg/kg/injection, schedule: Q04DX003 (ip), vehicle: alcohol): 97 % of control
- T/C (dose: 200.0 mg/kg/injection, schedule: Q04DX003 (ip), vehicle: alcohol): 102 % of control
- T/C (dose: 400.0 mg/kg/injection, schedule: Q04DX003 (ip), vehicle: alcohol): 88 % of control

SMILES: O=C1NC(=S)N/C1=C\c1ccco1
- T/C (dose: 25.0 mg/kg/injection, schedule: Q01DX001 (ip), vehicle: saline): 100 % of control
- T/C (dose: 50.0 mg/kg/injection, schedule: Q01DX001 (ip), vehicle: saline): 100 % of control
- T/C [13]: 98 % of control and 100 % of control

SMILES: CN1CC=C(/C=C/c2cccc3ccccc23)CC1
- T/C (dose: 25.0 mg/kg/injection, schedule: Q01DX009 (ip), vehicle: saline): 100 % of control
- T/C (dose: 50.0 mg/kg/injection, schedule: Q01DX009 (ip), vehicle: saline): 103 % of control
- T/C (dose: 100.0 mg/kg/injection, schedule: Q01DX009 (ip), vehicle: saline): 114 % of control
- T/C (dose: 100.0 mg/kg/injection, schedule: Q04DX003 (ip), vehicle: saline): 103 % of control

SMILES: CCOc1ccccc1NC(=O)NCC(=O)N/N=C/c1ccc(O)c(OC)c1
- T/C [1]: 95 % of control
- T/C [2]: 90 % of control
- T/C [3]: 91 % of control

SMILES: Nc1nc([Se]c2ccc([N+](=O)[O-])cc2)c2ncn(C3CC(O)C(CO)O3)c2n1 (stereo not drawn)
- T/C (dose: 100.0 mg/kg/injection, schedule: Q01DX005 (ip), vehicle: saline): 100 % of control
- T/C (dose: 200.0 mg/kg/injection, schedule: Q01DX005 (ip), vehicle: saline): 100 % of control

SMILES: OCCCOc1ccccc1
- T/C (dose: 100.0 mg/kg/injection, schedule: Q01DX001 (ip), vehicle: saline with Tween-80): 103 % of control
- T/C (dose: 200.0 mg/kg/injection, schedule: Q01DX001 (ip), vehicle: saline with Tween-80): 97 % of control
- T/C (dose: 400.0 mg/kg/injection, schedule: Q01DX001 (ip), vehicle: saline with Tween-80): 100 % of control

SMILES: Cc1ccc(NC(=O)Oc2ccc(-c3ccccc3)cc2)cc1NC(=O)Oc1ccc(-c2ccccc2)cc1
- T/C [7]: 91 % of control
- T/C [9]: 96 % of control

SMILES: COC(=O)c1ccccc1NC(=O)Nc1cc([N+](=O)[O-])ccc1OC
- T/C (dose: 50.0 mg/kg/injection, schedule: Q01DX009 (ip), vehicle: Klucel (hydroxypropylcellulose) (HPC)): 90 % of control
- T/C [1]: 97 % of control
- T/C [2]: 108 % of control

SMILES: NC(CSC(c1ccccc1)c1ccccc1)C(=O)O (stereo not drawn)
- T/C (dose: 10.0 mg/kg/injection, schedule: Q01DX015 (ip), vehicle: saline): 97 % of control
- T/C (dose: 20.0 mg/kg/injection, schedule: Q01DX015 (ip), vehicle: saline): 91 % of control
- T/C (dose: 40.0 mg/kg/injection, schedule: Q01DX015 (ip), vehicle: saline): 95 % of control
- T/C (dose: 50.0 mg/kg/injection, schedule: Q01DX001 (ip), vehicle: carboxymethylcellulose (CMC)): 98 % of control
- T/C (dose: 79.0 mg/kg/injection, schedule: Q01DX015 (ip), vehicle: saline): 92 % of control
- T/C [4]: 101 % of control
- T/C [13]: 101 % of control
- T/C (dose: 158.0 mg/kg/injection, schedule: Q01DX015 (ip), vehicle: saline): 95 % of control
- T/C [5]: 87 % of control
- T/C [14]: 100 % of control
- T/C (dose: 316.0 mg/kg/injection, schedule: Q01DX015 (ip), vehicle: saline): 98 % of control
- T/C [6]: 87 % of control
- T/C [15]: 101 % of control
- T/C (dose: 632.0 mg/kg/injection, schedule: Q01DX015 (ip), vehicle: saline): 97 % of control
